Experimental findings from publication PMC5599305 (The pharmacogenomics journal, 2017) are described below.

Holding throughout (assay type): cell-based
The target in test [1] is T1, human α4β2 nicotinic receptor, 3:2 (α4:β2) stoichiometry; (α4)3(β2)2 (Homo sapiens, UniProt P17787+P43681). The experiment in a line: two-electrode voltage clamp, Xenopus oocytes, direct activation. As to conditions: 200 μM compound alone; weak agonism. In general terms: Two-electrode voltage clamp holds a large cell at a set potential and records current.
For test [2], the target named is human α4β2 nicotinic receptor, 2:3 stoichiometry; (α4)2(β2)3 (Homo sapiens, UniProt P17787+P43681). The description is as above. The following applies: 200 μM compound alone; weak agonism.
Test [3] addresses T1, human α4β2 nicotinic receptor, 3:2 (α4:β2) stoichiometry; (α4)3(β2)2. The experiment in a line: two-electrode voltage clamp, Xenopus oocytes. As to conditions: agonist.

T1 sequence (P43681 27-627): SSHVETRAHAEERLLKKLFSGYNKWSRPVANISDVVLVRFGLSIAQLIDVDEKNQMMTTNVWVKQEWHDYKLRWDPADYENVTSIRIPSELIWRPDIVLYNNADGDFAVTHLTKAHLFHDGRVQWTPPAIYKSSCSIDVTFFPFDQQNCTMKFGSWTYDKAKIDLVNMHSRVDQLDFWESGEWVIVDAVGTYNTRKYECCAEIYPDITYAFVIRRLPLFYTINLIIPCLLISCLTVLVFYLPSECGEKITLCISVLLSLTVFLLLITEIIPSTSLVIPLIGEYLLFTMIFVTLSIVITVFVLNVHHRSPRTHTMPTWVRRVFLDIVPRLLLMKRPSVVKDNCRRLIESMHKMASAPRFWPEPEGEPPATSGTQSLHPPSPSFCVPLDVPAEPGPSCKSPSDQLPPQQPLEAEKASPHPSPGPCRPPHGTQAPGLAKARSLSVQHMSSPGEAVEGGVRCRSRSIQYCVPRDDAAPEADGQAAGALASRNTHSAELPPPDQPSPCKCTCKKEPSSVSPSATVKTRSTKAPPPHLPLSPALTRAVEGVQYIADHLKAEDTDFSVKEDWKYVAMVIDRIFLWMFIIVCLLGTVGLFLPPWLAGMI
T1 sequence (P17787 26-502): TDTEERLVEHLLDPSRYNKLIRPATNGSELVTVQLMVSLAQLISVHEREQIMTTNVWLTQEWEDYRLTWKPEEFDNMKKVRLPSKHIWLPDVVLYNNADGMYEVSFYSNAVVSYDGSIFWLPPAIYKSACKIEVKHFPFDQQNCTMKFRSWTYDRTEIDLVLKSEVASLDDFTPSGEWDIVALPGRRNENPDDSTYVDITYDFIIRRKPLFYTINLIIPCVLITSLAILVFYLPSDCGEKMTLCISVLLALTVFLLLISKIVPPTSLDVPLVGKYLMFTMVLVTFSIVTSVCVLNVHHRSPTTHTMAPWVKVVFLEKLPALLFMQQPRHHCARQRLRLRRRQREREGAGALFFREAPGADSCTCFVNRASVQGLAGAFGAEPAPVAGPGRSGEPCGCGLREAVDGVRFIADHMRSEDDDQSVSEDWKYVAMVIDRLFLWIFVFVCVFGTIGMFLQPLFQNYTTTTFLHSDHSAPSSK
Chain of human α4β2 nicotinic receptor, 2:3 stoichiometry; (α4)2(β2)3 (P43681 27-627): as the sequence (P43681 27-627) above
Chain of human α4β2 nicotinic receptor, 2:3 stoichiometry; (α4)2(β2)3 (P17787 26-502): as the sequence (P17787 26-502) above

Consider `C[N@@+]1([O-])CCC[C@H]1c1cccnc1` [trans-nicotine-N-oxide], for which, in test [1], the “relative peak response, % of 1 mM ACh response, at 200 μM” value is listed as 1.7 ± 0.3%. Moreover, the “relative peak response, % of saturating ACh response, at 200 μM” value in test [2] amounted to 5.7 ± 1.1%. `CC(=O)OCC[N+](C)(C)C` [acetylcholine]: in test [3], the EC3 is given as ~ 1 μM.
